# Reference: patent US6372943B1, “Polyenepolycarboxylic acids, derivatives thereof with respect to carboxyl groups, or salts of these” (Fujisawa Pharmaceutical Co., Ltd., priority 1998, dated 2002)
# Experiments:
# [1] = Sequestering ability against calcium ion under alkaline condition (pH13) (Example 17); type: physicochemical
# Description: First, a liquid for measurement was prepared in the following manner. Potassium oxalate (0.6 g) was dissolved in 0.1N sodium hydroxide (500 mL), and in the resulting solution (10 mL) was dissolved pentasodium salt of S1 compound (40) mg) or heptasodium salt of S2 compound (40 mg) to give the liquid for measurement. As a titrant was used 2.2% calcium acetate solution.
# The titrant was added dropwise to this liquid for measurement under stirring until the liquid for measurement became turbid by precipitation of calcium oxalate to determine the titer used A (mL). Another liquid for measurement not containing any one of the test samples was also measured in the same manner as above to determine the titer of blank B (mL). Based on the titers A and B, the sequestering ability against calcium ion was calculated according to the following formula. For comparison, an existing chelating agent (EDTA·4Na) was treated in the same manner as above to calculate its sequestering ability against calcium ion.
# Sequestering ability against calcium ion [Ca ion (mg)/test sample (1 g)]=(A−B)×(1 g/test sample amount precisely weighed)×5
# wherein the numeral “5” is the amount of Ca ion (5 mg) equivalent to 1 mL of the 2.2% calcium acetate solution.
# [2] = Dispersing activity, organic pigment in a non-aqueous system case 2, S0 anhydride in ethyl acetate (Example 15); details: supernatant 0.25 mL
# Description: (§1) Into a test tube (16×150 mm) was scaled and collected 0.5 mL of a suspension of copper phthalocyanine blue in ethyl acetate (40 mg/10 mL) under stirring with a point mixer, and ethyl acetate (4.5 mL) was further added thereto.
# (§2) To this suspension was added a solution of each of S1 and S2 anhydrides obtained in preparation example 1 in ethyl acetate (20 mg/2 mL), and ethyl acetate was further added thereto to give a total amount of 6 mL. This liquid was stirred with a point mixer for 15 seconds, treated with ultrasonic wave for 30 minutes, and then allowed to stand for 10 to 30 minutes. The resulting supernatant liquid (0.5 mL) was colle cted, admixed with ethyl acetate to give a total amount of 3 mL and then measured for absorbance at 660 wavelength. From the absorbance thus measured, the dispersibility was evaluated.
# S0 anhydride obtained in preparation example 11 was treated in the same manner as in example 14. The resulting supernatant liquid (0.25 mL) was collected, admixed with ethyl acetate to give a total amount of 3 mL, and then measured for absorbance. From the absorbance thus measured, the dispersing activity was evaluated.
# [3] = Dispersing activity, organic pigment in a non-aqueous system case 1, ethyl acetate (Example 14)
# Description: as §1, §2
# [4] = Dispersing activity, organic pigment in a non-aqueous system case 3, ethanol (Example 16); details: supernatant 0.25 mL
# Description: as §1, §2
# The same procedure as in example 14 except for the use of ethanol instead of ethyl acetate was performed. The amount of a supernatant liquid was 0.25 mL. From the absorbance thus measured, the dispersing activity was evaluated.
# [5] = Detergent activity against artificially soiled cloth, Launder-o-meter (Example 19); details: additive 0.25 g/L in basic washing liquid; 20° C., 10 minutes; ratio to washing liquid with no addition
# Description: A detergency test was conducted using a Launder-o-meter as a detergency tester by washing 15 pieces of artificially wet-soiled cloth (size: 5×5 cm, dirt composition: oleic acid 28.3%, triolein 15.6%, cholesterol oleate 12.2%, liquid paraffin 2.5%, squalene 2.5%, cholesterol 1.6%, gelatin 7.0%, soil matter 29.8% and carbon black 0.2-0.3%) available from SENTAKU KAGAKU KYOKAI (foundation) in a washing liquid (liquid temperature: 20° C.) of the composition shown in Table 25 for 10 minutes, followed by rinsing for three minutes.
# Judgment was done in the following manner. The reflectivity of each of the 15 pieces of artificially soiled cloth was measured before and after the test by means of a spectrocolorizeter, and from the mean value of the measured values the detergency was calculated according to the formula of Kubelka and Munk. The ratio of the detergency calculated of a sample to the detergency of a washing liquid with no addition was found as a detergency ratio.
# [6] = Dispersing activity, organic pigment in an aqueous system case 1, phthalocyanine green (Example 12); details: standing three hours
# Description: Into a test tube (16×150 mm) were placed a phthalocyanine green suspension (5 mL: phthalocyanine green 16 mg/distilled water 200 mL) and the filtrate (evaporated to dryness) obtained in culture example 1 in a predetermined amount, followed by stirring for 15 seconds with a point mixer. After the stirring, the resulting mixture liquid was allowed to stand for three hours, and then the diameter of phthalocyanine green deposited on the bottom of the test tube was measured to evaluate the dispersibility from the diameter measured. That is, a greater diameter measured is indicative of better dispersibility. For comparison, the same procedure was taken with commercially available naphthalenesulfonate or lignin sulfonate.
compound,measurement,setting,value
"O=C([O-])CN(CCN(CC(=O)[O-])CC(=O)[O-])CC(=O)[O-].[Na+].[Na+].[Na+].[Na+] [EDTA · 4Na, EDTA·4Na]","Sequestering ability against calcium ion, Ca ion",[1],92 mg/1 g of a test sample
CC/C=C/C1=C(CCC(=O)O)C(=O)OC1=O [S0 anhydride],Absorbance (660 nm),[2]; amount added 0.5 mg,0.84
same,Absorbance (660 nm),[2]; amount added 1.0 mg,0.89
CC/C=C/C1=C(CC(CC)CC2=C(CCC(=O)O)C(=O)OC2=O)C(=O)OC1=O (stereo not shown) [S1 anhydride],Absorbance (660 nm),[3]; amount added 2.5 mg,0.66
same,Absorbance (660 nm),[3]; amount added 5 mg,1.27
same,Absorbance (660 nm),[3]; amount added 10 mg,1.86
same,Absorbance (660 nm),[4]; amount added 0.25 mg,0.05
same,Absorbance (660 nm),[4]; amount added 0.50 mg,0.69
same,Absorbance (660 nm),[4]; amount added 1.00 mg,0.63
O=P(O)(O)OP(=O)(O)OP(=O)(O)O [Sodium tripolyphosphate],Detergency ratio,[5],1.38
O=C([O-])CC(O)(CC(=O)[O-])C(=O)[O-].[Na+].[Na+].[Na+] [Trisodium citrate],Detergency ratio,[5],1.38
naphthalenesulfonate,Diameter of phthalocyanine green deposited,[6]; 0.17 mg,4 mm
same,Diameter of phthalocyanine green deposited,[6]; 0.85 mg,5 mm
same,Diameter of phthalocyanine green deposited,[6]; 1.7 mg,6 mm
same,Diameter of phthalocyanine green deposited,[6]; 8.5 mg,6 mm
same,Diameter of phthalocyanine green deposited,[6]; 17 mg,6 mm
